Experiments:
HMGR enzyme = target: T1, HMGR enzyme (Homo sapiens, UniProt P04035); assay: Inhibition of HMGR enzyme activity (NADPH absorbance 340 nm); assay type: biochemical; conditions: acid form, 37° C.
T1 sequence (P04035 426-888 limits assumed): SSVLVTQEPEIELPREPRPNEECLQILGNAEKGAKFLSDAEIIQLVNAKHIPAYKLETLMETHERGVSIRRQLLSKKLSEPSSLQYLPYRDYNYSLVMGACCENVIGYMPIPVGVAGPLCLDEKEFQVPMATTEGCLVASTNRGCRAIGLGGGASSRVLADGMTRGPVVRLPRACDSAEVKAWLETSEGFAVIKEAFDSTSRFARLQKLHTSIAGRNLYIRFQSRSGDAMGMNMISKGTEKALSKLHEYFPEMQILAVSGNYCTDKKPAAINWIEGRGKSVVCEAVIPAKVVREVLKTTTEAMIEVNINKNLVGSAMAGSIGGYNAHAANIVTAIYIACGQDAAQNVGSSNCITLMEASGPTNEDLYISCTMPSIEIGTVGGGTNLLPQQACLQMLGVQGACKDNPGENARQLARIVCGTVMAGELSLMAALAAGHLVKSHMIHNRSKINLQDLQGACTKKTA
Procedure: Due to the nature of the compound, the degree of inhibition of the HMGR enzyme by compound NST0037 was determined since this enzyme is key in cellular cholesterol synthesis and in the physiological regulation of said synthesis. […] For the reaction, HMGR uses NADPH as a reducing agent and 3-hydroxy-3-methylglutaryl coenzyme A (HMGCoA) as a substrate, producing mevalonic acid, CoASH and NADP+. The reduction of the absorbance at which NADPH (340 nm) is absorbed is a direct measurement of the catalytic activity of HMGR and serves to calculate the inhibition percentages of different compounds. In order to take the HMGR inhibition, the assay was performed on a 96-well plate, with a total reaction volume of 200 μl. The reaction buffer (50 mM KH2PO4, 1 M KCl, 2 mg/ml Bovine Serum Albumin [BSA] and 5 mM DTT, at pH=7.3) was prepared at the time the reaction was conducted and was maintained at 37° C. […] The acid form of the compounds is used in all the cases.
The reduction of absorbance at 340 nm allows calculating the percentage of HMGR enzyme activity with respect to the control. The IC50 were determined by means of the Trimmed Spearman-Karber method (Version 1.5).

[1] = system: Hep G2 (human hepatocarcinoma) line; assay: Total cholesterol levels in hepatic cell line; assay type: cell-based; conditions: HepG2, acid compounds, 20 hours, absence of FBS
Procedure: To carry out this assay, the compounds were activated with NaOH until the lactone form was completely opened.
Both the Hep G2 (human hepatocarcinoma) line and the SK-N-MC (human neuroblastoma) line were obtained from the American Type Culture Collection (ATCC no. HB-8065 and HTB-10 respectively). In all cases strict rules of sterility were followed and the manipulation was performed in class II biological safety cabinets following European standard EN 12469. The cells maintained in passage were seeded in 96-well plates in MEM supplemented with 10% FBS, 2 mM L-glutamine, 1 mM sodium pyruvate, 0.1 mM non-essential amino acids and 0.05 mg/mL gentamicin. In the case of HepG2, 4×10^4 cells/well were seeded and in the case of SK-N-MC 5×10^4 cells/well were seeded. After 24 hours had elapsed from the seeding, the cells were deprived of FBS for 8 hours. The cells were then incubated with the treatments at various concentrations for 20 hours. After the incubation period, the cells were washed with PBS and lysed with a phosphate buffer with 0.5% Triton X-100. […]
The total cholesterol was quantified by means of enzymatic and fluorometric techniques. […] The fluorescence intensity was determined at 530 nm of excitation and 580 nm of emission by means of a fluorometer. The results were normalized by protein, which was determined by means of the BCA technique.

[2] = Lethality by constant exposure in water (4 days) in adult zebrafish (OECD 203); assay type: in vivo; conditions: zebrafish, in vivo; 4 days of continuous treatment in water
Procedure: (§1) The object of this assay is to determine the acute lethal toxicity of a substance on freshwater fish. Acute toxicity is the distinguishable adverse effect induced in an organism as a result of the exposure to a given substance for a short time period (days).
(§2) The deaths of the animals under study during the entire time of the assay were recorded as a toxicity parameter.
(§3) To that end, the fish that survived the treatment were sacrificed at 4 days post-treatment (previously anesthetized) and the samples (whole fish) were included in paraffin. The hematoxylin-eosin staining was subsequently performed in order to conduct the histopathological studies, obtaining a minimum of 6 longitudinal sections per animal, for the purpose of collecting different study areas of the same organ. The following organs were studied: brain, kidney, pancreas, intestine, eye, gills, ovary, testicle, muscle and liver.

adult zebrafish = assay: as above; assay type: in vivo; conditions: for histopathology: ovary / Mortality (dead animals/total): 4 days
Procedure: as §1, §2, §3

SMILES: CCC(CC)C(=O)O[C@H]1C[C@@H](C)C=C2C=C[C@H](C)[C@H](CC[C@@H]3C[C@@H](O)CC(=O)O3)[C@H]21 [NST0037, (1S,2S,6R,8S,8aR)-1,2,6,7,8,8a-hexahydro-3,7-dimethyl-8-[2-[(2R,4R)-tetrahydro-4-hydroxy-6-oxo-2H-pyran-2-yl]ethyl]-1-naphthalenyl-2-ethyl-butyrate]
- HMGR inhibition potency compared with atorvastatin (HMGR enzyme): surprisingly close to that of more potent statin, atorvastatin
- reduction of total cholesterol levels [1]: more potent than simvastatin
- LD50 at 4 days [2]: > 100 mg/kg
- histopathology: ovary (adult zebrafish; 30 mg/kg): not being observed
- histopathology: ovary (adult zebrafish; 100 mg/Kg): presented ovarian damage
- Mortality (dead animals/total) (adult zebrafish; Dose 1 mg/kg): 0/7
- Mortality (dead animals/total) (adult zebrafish; Dose 3.2 mg/kg): 0/7
- Mortality (dead animals/total) (adult zebrafish; Dose 10 mg/kg): 0/7
- Mortality (dead animals/total) (adult zebrafish; Dose 32 mg/kg): 0/7
- Mortality (dead animals/total) (adult zebrafish; Dose 100 mg/kg): 1/7
- percentage of mortality (adult zebrafish; day 4 post-treatment (100 mg/kg group)): 14%
